Structures are written as SMILES.

The values below come from patent US20190290641A1, “5-HYDROXYTRYPTAMINE 1B RECEPTOR-STIMULATING AGENT FOR SKIN AND/OR HAIR REPAIR” (INSTITUT PASTEUR, priority 2016, published 2019).

Experiment [1] relates to 8 mm biopsy wound of the skin in C57Bl/6 mice. Description: Histological analysis of the wound (H&E, re-epithelization, Ki67 immunostaining). The experiment is classed as in vivo. The settings on record: for cell infiltration in the dermis vs placebo / number of Ki67+ cells (proliferating cells) in the wound vs placebo / open wounded area vs placebo (H&E): 5 days post injury; for number of cycling cells vs placebo: 14 days post injury; for number of vessels: at the time of the biopsy (T0), H&E, per os treatment, placebo 4.8±1.3; for length of the epithelial tongues vs placebo: day 5 after injury; for distances between the tips of the epithelial tongues vs placebo: day 5 after wounding. The procedure:
Width of the wound and distance of the traversed epithelium were measured on H&E.
Percent of re-epithelization was calculated according to the following formula: [distance covered by epithelium]/[distance between wound bed]×100.
The extent of epithelialization and granulation tissue formation was determined on H&E-stained paraffin tissue sections. The length of the epithelial tongue was determined as the distance that the neo-epithelium had migrated from the margin of the wound as defined by the presence of hair follicles in non-wounded skin.
Immunostaining was performed on formol fixed sections. Permeabilized with 0.5% Triton X-100 20 min at room temperature, washed, and blocked with 10% BSA for 30 min. Sections were incubated with primary antibodies overnight at 4° C. and with Alexa-conjugated secondary antibodies 1/250 and Hoechst for 45 minutes. Sections were then analysed using an automated axioscan (Zeiss) or inverted Observer.Z1 Apotome (Zeiss).
To further characterize the wound closure, histological analysis was performed at the time of the biopsy (T0), 5 days post injury and 14 days post injury.

Experiment [2] has as its system hair growth of shaved mice. As to the kind of experiment: Hair growth after shaving (clippers) or depilation (wax). The settings on record: for hair regeneration after shaving: 5 and 10 days after shaving; for hair growth, differences between the groups: 24 days after shaving; for growth of hairs in both protocols (clippers, wax): after shaving or depilation. The experiment is classed as in vivo. The procedure:
2 different protocols were used to remove the hair from the mice. Mice were anesthetized using Isoflurane, initially in an induction chamber. The anaesthetised mice were transferred to the anaesthetic nose-cone and maintained on a heated block throughout the procedure (typically for about 5 minutes). In protocol 1, shaving was performed by cutting the hair: the mice were gently restrained manually and half of their back was shaved with portable electric hair clippers. In protocol 2, some hair was firstly removed with forceps and wax was used to unstack the hair. The wax was applied twice for maximum efficiency.
The skin color of the mouse skin was measured three times in 5 different locations of the shaved skin randomly and averaged within a 16×16 mm2 field, using ImageJ. The luminance measured reflects the relative darkness ranging from white (0) to black (1 0 0).
In order to study the influence of fluoxetine or vortioxetine on hair growth after a stress 2 different protocols were used on the same mouse. The half right part of the mouse back was shaved by cutting the hair with hairs clippers, and, in parallel, the hairs were removed using wax to unstack the hairs on the left part of the back (FIG. 4G). […] This was still true 10 days after shaving with longer hairs in the treated animals compared with placebo (FIG. 4J,M,N). […] These observations are in favor of a faster growth and faster regeneration but not bigger or longer hairs.

Experiment [3] relates to 8 mm biopsy wound of the skin in C57Bl/6 mice. As to the kind of experiment: Wound healing after 8 mm skin biopsy, per os treatment, macroscopic wound size. Format: in vivo. The settings on record: for wound in average smaller than placebo: between the 4th and the 14th day post-injury; for size of the wound vs placebo in the course of wound closure: until 16 days post injury. The procedure: (§1) All procedures in this study were approved by the Animal Care and Use committee at the Institut Pasteur (CETEA 2016-0007). Unless specified, 6 weeks old male mice C57Bl/6Rj were used in this study and housed on a 12:12 light/dark cycle in a pathogen free facility with controlled temperature and humidity. Food and drink were given ad libitum. Fluoxetine was dissolved in 0.9% NaCl and delivered either by intra peritoneal injections or per os at 18 mg/Kg. Control group received daily injections of 0.9% NaCl. For vortioxetine mice also received the product either dissolved in 96% Ethanol and then diluted 1/200 in water ad libitum at 20 mg/kg or dissolved in 96% Ethanol and then diluted 1/200 in 0.9% NaCl, final concentration 20 mg/kg body weight corrected. For topical applications vortioxetine was dissolved in 0.9% Nacl and directly applied in the wound the 3 first days and then on top on the wound the following days, every day.
(§2) Mice were anesthetized using Isoflurane, initially in an induction chamber. The anaesthetised mice were transferred to the anaesthetic nose-cone and maintained on a heated block throughout the procedure (typically for about 5 minutes). Analgesic was administered by subcutaneous injection e.g. buprenorphine 1.5 μl of […] solution, diluted in 30 μl sterile water. The area of the biopsy was shaved. Then an area of dorsal skin was rendered sterile by swabbing with Videne surgical scrub followed by sterile water. A 8 mm sterile punch biopsy was used to create an incision through the epidermis/dermis to the muscle fascia. Any bleeding at this step was carefully avoided. The punch biopsy was removed and the skin separated from muscle connective tissues using forceps or blunted scissors. Mice were then removed from the anesthetic nose-cone and housed in sterilised cages containing paper liner and paper bedding. They were kept warm (using a cage placed on a heated mat) until fully recovered from the effects of the anaesthetic.
In order to assess the regenerative potential of the skin, a 8 mm biopsy of the skin was performed in C57Bl/6 mice, which were either treated per os with fluoxetine at 18 mg/kg or with vortioxetine at 20 mg/kg for 6 weeks and 12 days respectively (FIG. 1A) and during the healing process.

For experiment [4], the system named is hair and hair follicle of mice. Description: Hair and skin measurements after treatment without shaving. The settings on record: no shaving; for hair size: per os fluoxetine 18 mg/kg 6 weeks, vortioxetine 20 mg/kg 12 days; for hair follicle length / skin thickness: per os. Format: in vivo. The procedure:
as §1
To study the possible effect of fluoxetine and vortioxetine on hair growth, fluoxetine (at 18 mg/kg) or vortioxetine (at 20 mg/kg) was provided per os to mice for 6 weeks and 12 days, respectively. […] However, when the hairs were challenged with shaving or depilation, a faster growth of hairs was observed

The target of the next experiment is T1, 5HT1 BR (Mus musculus, UniProt P28334).
T1 construct: from tissue; host or cells: live mice, skin wound (in vivo)
T1 sequence (P28334 whole entry): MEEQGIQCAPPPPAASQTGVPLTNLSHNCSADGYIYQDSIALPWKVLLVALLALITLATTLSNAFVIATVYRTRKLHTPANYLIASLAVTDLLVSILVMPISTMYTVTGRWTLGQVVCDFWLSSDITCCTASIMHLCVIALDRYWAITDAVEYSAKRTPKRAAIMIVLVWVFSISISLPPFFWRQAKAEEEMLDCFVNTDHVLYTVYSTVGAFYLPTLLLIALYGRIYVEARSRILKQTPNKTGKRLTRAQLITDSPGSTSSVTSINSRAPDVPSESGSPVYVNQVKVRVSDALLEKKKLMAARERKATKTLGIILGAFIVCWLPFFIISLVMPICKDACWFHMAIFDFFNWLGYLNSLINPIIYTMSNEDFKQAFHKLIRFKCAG
Description: Wound closure with topical 5HT1 BR agonist, with or without 5HT1 BR antagonist. Format: in vivo, mice. The settings on record: for size of the wound: 6 days post injury, control 15.09±2.3. The procedure: Mice were treated with another 5HT1 BR agonist (CP 94253) directly on the wound (topic administration) at a concentration of 0.5 μmol, 12 h after a wound injury.
No pretreatment was performed on this set of experiments and the drug was administered once a day for the totality of the duration of the wound closure. Controls group received PBS topically only, once a day for the total duration of the treatment.

The subject of another experiment is hair growth in patients. The settings on record: about 100 patients, cited from earlier work.
For experiment [5], the system named is 8 mm biopsy wound of the skin in C57Bl/6 mice. As to the kind of experiment: Wound healing after 8 mm skin biopsy, topical application without pre-treatment. The experiment is classed as in vivo. The procedure: as §1, §2
To further confirm the data, the same protocol was performed on C57Bl/6 mice wounded with 8 mm biopsy, but this time the mice were not pre-treated and received topical (300 μl) applications of vortioxetine at a concentration of 20 mg/ml diluted in 96% ethanol. The placebo received the same amount of 96% ethanol. […] Six days post injury, the size of the wound was smaller in the animals topically treated with vortioxetine (FIG. 1L). Eight days post injury, the size of the wound was 10 times lower than the placebo (FIG. 1L).

Where [6] appears, read: first 24 hours, per os fluoxetine 18 mg/kg 6 weeks or vortioxetine 20 mg/kg 12 days pre-treatment and during healing.
[7] abbreviates: six days post injury, per os, placebo 15.67.
Where [8] appears, read: sixteen days post injury, per os.
Where [9] appears, read: sixteen days post injury, per os, placebo 0.5.

For the molecule `CNCCC(Oc1ccc(C(F)(F)F)cc1)c1ccccc1` (stereo not drawn) [fluoxetine], in experiment [1], the “cell infiltration in the dermis vs placebo” value is “more cells”, the “number of Ki67+ cells (proliferating cells) in the wound vs placebo” value is “higher”, the “open wounded area vs placebo (H&E)” value was “smaller” and the “number of cycling cells vs placebo” value is on record as “No differences”. Also, in experiment [1], the number of vessels came to 8.2±2.7 vessels/mm^2, the “length of the epithelial tongues vs placebo” value is reported as “significantly increased” and the “distances between the tips of the epithelial tongues vs placebo” value is “significantly shorter”. Besides, in experiment [2], the “hair regeneration after shaving” value was “more advanced, faster regeneration of the hairs”; the “hair growth, differences between the groups” value is given as “no differences”; the “growth of hairs in both protocols (clippers, wax)” value is reported as “faster growth”. Also, the “hair growth vs placebo” value in experiment [2] (5 days after shaving) is recorded as “More advanced hair growth”. The “hair growth vs placebo” value in experiment [2] (10 days after shaving) was “longer hairs”. In experiment [3], the “wound in average smaller than placebo” value came to 27%. Besides, in experiment [3] (setting [6]), the “size of the wound vs placebo” value is recorded as “No difference”. Besides, the “size of the wound vs placebo” value in experiment [3] (four days post injury, per os) is “smaller”. The “area of the wound” value in experiment [3] (setting [7]) is on record as 11.48 mm^2. The “skin regeneration at the macroscopic level” value in experiment [3] (setting [8]) is on record as “virtually completely regenerated”. Also, the “area of the wound” value in experiment [3] (setting [9]) was 0.05 mm^2. In addition, the “size of the wound vs placebo” value in experiment [3] (two days post injury, per os) was “smaller”. Besides, the “size of the wound vs placebo in the course of wound closure” value in experiment [3] (per os) was “constantly smaller”. Besides, in experiment [4], the hair size entry is given as “No differences”, the hair follicle length result is “No differences” and the skin thickness entry is recorded as “did not change”.
For `CCCOc1ccc2[nH]cc(C3=CCNCC3)c2n1` [CP 94253], the “size of the wound” value at 5HT1 BR (topical 0.5 μmol once a day from 12 h after injury, no pretreatment) is 7.7±2.5.
Turning to `CCOC(=O)c1ccnc(C(=O)OCC)c1` [stemoxydin], the “new hairs compared to the normal average of 50 to 100 new hairs growing every day” value in the experiment with hair growth in patients (90 days) is on record as 4%. In addition, in the experiment on hair growth in patients (in 90 days), the average new hairs is recorded as 1500 new hairs.
For `COc1ccc(NC(=O)c2ccc(-c3ccc(-c4noc(C)n4)cc3C)cc2)cc1N1CCN(C)CC1` [GR127935], the “size of the wound” value on 5HT1 BR (antagonist by osmotic pumps at 4 mg/kg concomitant with topical agonist CP 94253) came to 10.3±3.1. Besides, the “effect of the antagonist on the positive effects of the agonist” value at 5HT1 BR (osmotic pumps at 4 mg/kg, concomitant with CP 94253) is recorded as “blocked partially”.
Turning to `Cc1ccc(Sc2ccccc2N2CCNCC2)c(C)c1` [vortioxetine, 1-[2-(2,4-Dimethylphenylsulfanyl)phenyl]piperazine], in experiment [1], the “cell infiltration in the dermis vs placebo” value is “more cells”, the “number of Ki67+ cells (proliferating cells) in the wound vs placebo” value is recorded as “higher”, the “open wounded area vs placebo (H&E)” value is reported as “smaller” and the “number of cycling cells vs placebo” value is reported as “No differences”. Besides, in experiment [1], the number of vessels is 8.7±3.5 vessels/mm^2, the “length of the epithelial tongues vs placebo” value is on record as “significantly increased” and the “distances between the tips of the epithelial tongues vs placebo” value was “significantly shorter”. Besides, in experiment [2], the “hair regeneration after shaving” value is recorded as “more advanced, faster regeneration of the hairs”; the “hair growth, differences between the groups” value was “no differences”; the “growth of hairs in both protocols (clippers, wax)” value was “faster growth”. The “hair growth vs placebo” value in experiment [2] (5 days after shaving) is on record as “More advanced hair growth”. Moreover, in experiment [2] (10 days after shaving), the “hair growth vs placebo” value is “longer hairs”. For the same molecule, the “sizes of the wounds vs placebo” value in experiment [5] (T0 to 4 days post injury, topical 300 μl of 20 mg/ml, no pre-treatment) is given as “No differences”. The “size of the wound relative to placebo” value in experiment [5] (eight days post injury, topical) is 10 times lower than the placebo. Moreover, the “size of the wound vs placebo” value in experiment [5] (six days post injury, topical) is “smaller”. Moreover, the wound closure result in experiment [5] (sixteen days post injury, topical, placebo 0.20 mm^2) is on record as “virtually completely closed”. In addition, the “wound in average smaller than placebo” value in experiment [3] is on record as 35%. Moreover, in experiment [3] (setting [6]), the “size of the wound vs placebo” value was “No difference”. For the same molecule, in experiment [3] (four days post injury, per os), the “size of the wound vs placebo” value is on record as “smaller”. For the same molecule, the “area of the wound” value in experiment [3] (setting [7]) was determined as 10.10 mm^2. The “skin regeneration at the macroscopic level” value in experiment [3] (setting [8]) is “virtually completely regenerated”. For the same molecule, the “area of the wound” value in experiment [3] (setting [9]) was determined as 0.05 mm^2. The “size of the wound vs placebo in the course of wound closure” value in experiment [3] (per os) was “constantly smaller”. Also, in experiment [4], the hair size result was “No differences”, the hair follicle length entry is “No differences” and the skin thickness entry is given as “did not change”.
